Measurements reported in patent publication US8178528B2, “Histamine H3 receptor agents, preparation and therapeutic uses” (Eli Lilly and Company, priority 2005, dated 2012).

Target: T1, H3R membranes (H3R8-expressing HEK293 cell line) (Homo sapiens, UniProt Q9Y5N1)
T1 construct: expressed in transfected cells; membranes
Assay: [35S] GTP gamma [S] binding assay
Type: biochemical
Settings: agonist R(-)alpha methylhistamine
Description: Membranes isolated as described in (Preparation of Histamine Receptor Subtype Membranes) are used in a [35S]GTPχS functional assay. Binding of [35S]GTPχS to membranes indicates agonist activity. Compounds of the invention of Formula I or Formula II are tested for their ability to inhibit binding in the presence of agonists. Alternately, the same transfected cell lines are used for a cAMP assay wherein H3R agonists inhibit forskolin-activated synthesis of cAMP. Compounds of Formula I or Formula II are tested for their ability to permit forskolin-stimulated cAMP synthesis in the presence of agonist.
cDNA for the human histamine 3 receptor is cloned and expressed as described in (A. Preparation H1R membranes), above. Transfected cells are selected using G418 ([…]), grown, and tested for histamine binding by the SPA described above. For total binding, cells are assayed in a SPA reaction described above containing 50 mM Tris-HCL (assay buffer), pH 7.6, 1 mg wheat germ agglutinin SPA beads (Amersham Pharmacia Biotech, #RPNQ0001), and 1 nM (3H)-n-alpha-methylhistamine (NEN, NET1027) (total volume per well=200 μl). Thioperimide is added to determine non-specific binding. […]
Antagonist activity of selected compounds is tested for inhibition of [35S] […] Plates are counted in Wallac Trilux 1450 Microbeta scintillation counter for 1 minute. […]

T1 sequence (Q9Y5N1 whole entry): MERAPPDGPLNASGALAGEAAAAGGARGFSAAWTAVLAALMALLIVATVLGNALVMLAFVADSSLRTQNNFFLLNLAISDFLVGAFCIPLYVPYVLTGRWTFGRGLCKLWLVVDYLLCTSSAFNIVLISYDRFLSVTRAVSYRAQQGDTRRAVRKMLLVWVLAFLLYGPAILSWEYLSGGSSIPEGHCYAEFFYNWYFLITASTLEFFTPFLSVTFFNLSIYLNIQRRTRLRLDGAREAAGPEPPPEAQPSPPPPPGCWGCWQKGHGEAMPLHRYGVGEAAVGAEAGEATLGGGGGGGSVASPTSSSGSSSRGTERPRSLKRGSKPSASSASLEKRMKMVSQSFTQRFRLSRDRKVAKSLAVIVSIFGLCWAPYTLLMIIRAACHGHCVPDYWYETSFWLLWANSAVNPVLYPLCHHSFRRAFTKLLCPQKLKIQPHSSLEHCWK

| SMILES | Ki |
| --- | --- |
| O=C(c1ccc(C2CCCCC2)cc1)N1CCC[C@H]1CN1CCCC1 | 0.047 µM |
| O=C(c1ccc(S(=O)(=O)c2ccccc2)cc1)N1CCC[C@H]1CN1CCCC1 | 0.012 µM |
